Measured values from patent US4705786A, “Novel oxadiazolyl-1,4-dihydropyridines useful as antihypertensive agents” (Sumitomo Pharmaceuticals Company, Limited, priority 1984, dated 1987).
Counter-ions that a name gives are not always drawn.

Legend:
[1] = target: isolated strips of the descending aorta (Rattus norvegicus, UniProt P22002); test: cell-based; set-up: species or system Male Wistar rats; settings: for Kb: isolated rat aorta, Ca2+ dose-response curves in 25 mM K+, Arunlakshana method, read-out: pA2 (converted)
Method: The in vitro calcium antagonistic activity of the subject compounds of the formula (I) was evaluated according to substantially the same method as that of Toda et al., J. Pharmacol. Exp. Ther. 181, 512 (1972) and ibid., 191, 139 (1974).
Male Wistar rats weighing 300-400 g were stunned by a sharp blow to the head. The isolated strips of the descending aorta were-fixed vartically in a 50 ml organ both containing Krebs-Henseleit solution maintained at 37° C. and saturated with a 95% O2 +5% CO2 gas mixture. Isometric tension was measured with a foree-displacement transducer and recorded on a polygraph recorder. During a 60-90 min equilibration period the resting tension was repeatedly adjusted to 1 g. The vessels having ability to potassium-induced contractions were exposed to a Ca^2+ -free medium for 30 min and then to 25 mM K^+ solution. When a contractile plateau was reached, Ca^2+ was added, and the cumulative response to 0.25, 0.5 and 4 mM Ca^2+ was recorded. After wash-out and a equilibration period with renewed testing of contractile ability, the preparations were once more exposed to Ca^2+ -free medium. The test compound was added to the organ bath 5 min before administration of potassium. Calcium was cumulatively added once again and the contractile response so obtained was expressed in percent of the contraction elicited by 4 mM Ca^2+. Dose-response curves for Ca^2+ were carried out cumulatively in the absence or presence of increasing concentrations of test compound. The pA2 values were calculated by the method of Arunlakshana et al., Brit. J. Pharmacol., 14, 48 (1959).

SHR = test: 4 weeks administration to SHR, hypotensive potency; type: in vivo, spontaneous hypertensive rats (SHR); settings: 15 mg/kg/day po
Method: The hypotensive potency of the compound D was also compared with that of nicardipine by administering to the SHR for 4 weeks at 15 mg/kg/day, po.

[2] = system: isolated rabbit aortic strip; test: inhibition of norepinephrine-induced contractions of isolated rabbit aortic strip potentiated by ouabain; type: cell-based; settings: Oryctolagus cuniculus, read-out: concentration at which norepinephrine-induced contractions are inhibited
[3] = system: spontaneous hypertensive rats (SHR); test: single oral administration to spontaneous hypertensive rats (SHR), antihypertensive activity; type: in vivo; settings: compound D 1 mg/kg vs nicardipine 3 mg/kg
[4] = system: mean arterial blood pressure; test: antihypertensive vasodilating activity in anesthetized, ganglion-blocked rats with blood pressure maintained by intravenous angiotensin II; type: in vivo; settings: 0.01 mg/kg and 0.003 mg/kg
Method: The anesthetized and ganglion-blocked rats whose blood pressure were maintained by an intravenous infusion of angiotensin II were prepared and the test compounds were evaluated according to substantially the same method as that of Deitchman et al., J. Pharmacol Methods, 3, 311 (1980).

[5] = system: physiological saline loaded rats; test: diuretic activity in physiological saline loaded rats; type: in vivo; settings: compound D 3 mg/kg po vs nicardipine 10 mg/kg po

Chain of isolated strips of the descending aorta (P22002 whole entry): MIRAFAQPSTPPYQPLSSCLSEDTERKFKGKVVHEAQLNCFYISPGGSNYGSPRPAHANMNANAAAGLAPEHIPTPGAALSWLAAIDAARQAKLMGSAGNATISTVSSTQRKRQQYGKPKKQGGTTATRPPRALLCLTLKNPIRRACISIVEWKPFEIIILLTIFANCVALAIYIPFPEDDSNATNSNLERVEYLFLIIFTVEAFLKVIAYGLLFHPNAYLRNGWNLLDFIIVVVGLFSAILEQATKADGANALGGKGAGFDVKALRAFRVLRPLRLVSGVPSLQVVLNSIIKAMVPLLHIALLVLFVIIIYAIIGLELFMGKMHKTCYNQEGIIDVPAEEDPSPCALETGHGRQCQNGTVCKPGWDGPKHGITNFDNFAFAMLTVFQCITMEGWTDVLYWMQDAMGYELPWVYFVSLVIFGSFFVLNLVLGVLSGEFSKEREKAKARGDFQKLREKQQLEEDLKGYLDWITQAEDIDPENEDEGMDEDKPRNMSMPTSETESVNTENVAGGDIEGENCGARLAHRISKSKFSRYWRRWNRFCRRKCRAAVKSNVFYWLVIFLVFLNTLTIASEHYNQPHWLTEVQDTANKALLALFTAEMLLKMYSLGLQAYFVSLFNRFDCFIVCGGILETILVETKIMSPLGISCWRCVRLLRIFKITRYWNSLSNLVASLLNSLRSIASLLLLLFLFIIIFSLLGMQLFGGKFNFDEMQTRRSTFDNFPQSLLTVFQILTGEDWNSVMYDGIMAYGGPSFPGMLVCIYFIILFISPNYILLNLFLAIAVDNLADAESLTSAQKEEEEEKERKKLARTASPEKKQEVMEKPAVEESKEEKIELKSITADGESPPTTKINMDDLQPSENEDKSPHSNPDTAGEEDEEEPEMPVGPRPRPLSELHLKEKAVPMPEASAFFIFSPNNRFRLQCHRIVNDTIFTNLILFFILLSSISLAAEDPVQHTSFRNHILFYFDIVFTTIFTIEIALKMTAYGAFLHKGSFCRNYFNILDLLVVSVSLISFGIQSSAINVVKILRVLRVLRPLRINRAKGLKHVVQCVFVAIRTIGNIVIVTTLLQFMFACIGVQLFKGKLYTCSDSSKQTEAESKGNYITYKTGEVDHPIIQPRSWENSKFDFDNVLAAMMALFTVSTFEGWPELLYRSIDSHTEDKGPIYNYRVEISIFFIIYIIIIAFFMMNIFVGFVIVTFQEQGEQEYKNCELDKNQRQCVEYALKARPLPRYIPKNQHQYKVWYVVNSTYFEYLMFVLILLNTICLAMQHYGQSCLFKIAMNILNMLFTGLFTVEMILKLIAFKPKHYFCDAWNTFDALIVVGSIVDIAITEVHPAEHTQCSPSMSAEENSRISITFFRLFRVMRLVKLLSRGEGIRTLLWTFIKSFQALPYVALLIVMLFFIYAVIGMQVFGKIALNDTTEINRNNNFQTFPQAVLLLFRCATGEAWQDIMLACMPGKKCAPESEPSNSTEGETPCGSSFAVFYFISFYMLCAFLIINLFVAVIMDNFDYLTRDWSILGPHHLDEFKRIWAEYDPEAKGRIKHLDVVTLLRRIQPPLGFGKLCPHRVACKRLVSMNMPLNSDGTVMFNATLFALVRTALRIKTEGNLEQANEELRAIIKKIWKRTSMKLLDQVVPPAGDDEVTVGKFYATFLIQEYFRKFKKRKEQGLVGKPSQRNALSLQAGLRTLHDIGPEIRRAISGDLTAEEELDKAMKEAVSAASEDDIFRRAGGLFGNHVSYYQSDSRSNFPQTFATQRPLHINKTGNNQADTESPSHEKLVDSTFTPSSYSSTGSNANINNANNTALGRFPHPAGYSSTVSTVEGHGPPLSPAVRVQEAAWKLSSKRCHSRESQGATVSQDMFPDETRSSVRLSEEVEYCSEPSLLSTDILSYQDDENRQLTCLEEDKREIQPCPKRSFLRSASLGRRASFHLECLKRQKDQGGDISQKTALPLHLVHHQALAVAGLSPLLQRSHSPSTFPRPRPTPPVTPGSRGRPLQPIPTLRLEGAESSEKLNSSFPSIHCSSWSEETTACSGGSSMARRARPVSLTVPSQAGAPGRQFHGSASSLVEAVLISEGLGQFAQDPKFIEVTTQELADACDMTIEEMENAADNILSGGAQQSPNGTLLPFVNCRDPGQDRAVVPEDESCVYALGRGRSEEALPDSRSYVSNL
Chain of isolated strips of the descending aorta (P54290 25-944 partner limits assumed): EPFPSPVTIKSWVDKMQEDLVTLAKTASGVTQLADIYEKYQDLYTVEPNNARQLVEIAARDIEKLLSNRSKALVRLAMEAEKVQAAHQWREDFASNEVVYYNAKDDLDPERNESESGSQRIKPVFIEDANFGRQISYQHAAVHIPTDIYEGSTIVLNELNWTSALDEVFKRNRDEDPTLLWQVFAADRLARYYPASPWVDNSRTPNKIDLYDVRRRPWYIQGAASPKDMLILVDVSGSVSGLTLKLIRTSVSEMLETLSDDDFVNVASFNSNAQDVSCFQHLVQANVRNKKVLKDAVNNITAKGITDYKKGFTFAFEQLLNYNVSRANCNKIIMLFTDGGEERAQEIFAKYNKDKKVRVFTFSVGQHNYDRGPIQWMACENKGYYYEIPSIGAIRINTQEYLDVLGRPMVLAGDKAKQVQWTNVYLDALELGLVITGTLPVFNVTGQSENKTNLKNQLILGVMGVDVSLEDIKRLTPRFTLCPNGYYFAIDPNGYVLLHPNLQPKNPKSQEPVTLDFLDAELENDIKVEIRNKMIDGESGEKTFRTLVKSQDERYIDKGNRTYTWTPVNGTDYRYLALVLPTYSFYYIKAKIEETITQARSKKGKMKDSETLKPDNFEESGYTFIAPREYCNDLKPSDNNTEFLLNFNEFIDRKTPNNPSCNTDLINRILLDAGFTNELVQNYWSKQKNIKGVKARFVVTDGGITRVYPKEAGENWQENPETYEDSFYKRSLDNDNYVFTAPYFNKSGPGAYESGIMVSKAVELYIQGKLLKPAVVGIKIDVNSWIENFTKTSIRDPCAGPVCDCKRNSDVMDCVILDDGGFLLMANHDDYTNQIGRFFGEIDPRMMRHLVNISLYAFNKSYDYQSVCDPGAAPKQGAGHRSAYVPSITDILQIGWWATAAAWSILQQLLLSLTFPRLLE
Chain of isolated strips of the descending aorta (P54290 945-1091 partner limits assumed): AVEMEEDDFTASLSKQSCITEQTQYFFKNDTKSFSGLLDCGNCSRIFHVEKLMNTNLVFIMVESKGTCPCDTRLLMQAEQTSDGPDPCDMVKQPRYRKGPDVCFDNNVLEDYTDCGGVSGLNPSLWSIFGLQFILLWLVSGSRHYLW

| SMILES | Kb [1] | minimal effective concentration [2] | also measured |
| --- | --- | --- | --- |
| COC(=O)C1=C(C)NC(C)=C(c2nc(CN3CCCCC3)no2)C1c1cccc([N+](=O)[O-])c1 (centres unmarked) [A, Methyl 1,4-dihydro-2,6-dimethyl-3-(3-piperidinomethyl-1,2,4-oxadiazol-5-yl)-4-(3-nitrophenyl)pyridine-5-carboxylate hydrochloride] | 0.0309 nM | – | – |
| COC(=O)C1=C(C)NC(C)=C(c2nc(CN3CCCCC3)no2)C1c1ccccc1 (centres unmarked) [B, Methyl 1,4-dihydro-2,6-dimethyl-3-(3-piperidinomethyl-1,2,4-oxadiazol-5-yl)-4-phenylpyridine-5-carboxylate hydrochloride] | 0.363 nM | – | – |
| COC(=O)C1=C(C)NC(C)=C(c2nc(CN3CCCCC3)no2)C1c1ccc(Cl)c(Cl)c1 (centres unmarked) [C, Methyl 1,4-dihydro-2,6-dimethyl-3-(3-piperidinomethyl-1,2,4-oxadiazol-5-yl)-4-(3,4-dichlorophenyl)pyridine-5-carboxylate hydrochloride] | 0.129 nM | – | – |
| COC(=O)C1=C(C)NC(C)=C(c2nc(C)no2)C1c1cccc([N+](=O)[O-])c1 (centres unmarked) [Compound R1, Methyl 1,4-dihydro-2,6-dimethyl-3-(3-methyl-1,2,4-oxadiazol-5-yl)-4-(3-nitrophenyl)pyridine-5-carboxylate, reference compound] | 32.4 nM | – | calcium antagonistic potency: times less potent than the subject compounds ([1]; R1 compared with compounds A-G): 100-1000 times |
| COC(=O)C1=C(C)NC(C)=C(C(=O)OCCN(C)Cc2ccccc2)C1c1cccc([N+](=O)[O-])c1 (centres unmarked) [Compound R3, 2-(N--Benzyl-N--methylamino)ethyl methyl 1,4-dihydro-2,6-dimethyl-4-(3-nitrophenyl)pyridine-3,5-dicarboxylate, reference compound] | 0.417 nM | > 0.1 µM | antihypertensive activity on 4 weeks administration (SHR): no significant effects |
| COC(=O)C1=C(C)NC(C)=C(c2nc(CN(C)Cc3ccccc3)no2)C1c1cccc([N+](=O)[O-])c1 (centres unmarked) [D, Methyl 1,4-dihydro-2,6-dimethyl-3-[3-(N--benzyl-N--methylamino)methyl-1,2,4-oxadiazol-5-yl]-4-(3-nitrophenyl)-pyridine-5-carboxylate hydrochloride] | 0.186 nM | 0.01 µM | antihypertensive activity on 4 weeks administration (SHR): apparent antihypertensive activity; heart rate (SHR): slight decrease of heart rate; antihypertensive activity in SHR [3]: about the same antihypertensive activity as that of nicardipine 3 mg/kg; duration of antihypertensive effect in SHR [3]: continued much longer than that of nicardipine; antihypertensive effects in comparison with nifedipine and nicardipine [4]: dose-dependently more potent and long acting antihypertensive effects in comparison with nifedipine and nicardipine; diuretic activity [5]: about the same diuretic activity as that of nicardipine 10 mg/kg, po |
| COC(=O)C1=C(C)NC(C)=C(c2nc(CNC(C)c3ccccc3)no2)C1c1cccc([N+](=O)[O-])c1 (stereo not drawn) [E, Methyl 1,4-dihydro-2,6-dimethyl-3-[3-(α-methylbenzylamino)methyl-1,2,4-oxadiazol-5-yl]-4-(3-nitrophenyl)-pyridine-5-carboxylate citrate] | 0.0457 nM | – | – |
| COC(=O)C1=C(C)NC(C)=C(c2nc(CN(C)CCc3ccc(OC)c(OC)c3)no2)C1c1cccc([N+](=O)[O-])c1 (centres unmarked) [F, Methyl 1,4-dihydro-2,6-dimethyl-3-[3-[N--(3,4-dimethoxyphenethyl)-N--methyl-amino]methyl-1,2,4-oxadiazol-5-yl]-4-(3-nitrophenyl)pyridine-5-carboxylate hydrochloride] | 0.0955 nM | 0.01 µM | – |
| CC1=C(C(=O)OC(C)C)C(c2cccc([N+](=O)[O-])c2)C(c2nc(CN(C)Cc3ccccc3)no2)=C(C)N1 (centres unmarked) [G, Isopropyl 1,4-dihydro-2,6-dimethyl-3-[3-(N--benzyl-N--methylamino)methyl-1,2,4-oxadiazol-5-yl]-4-(3-nitrophenyl)-pyridine-5-carboxylate hydrochloride] | 0.355 nM | – | – |
